From US11866720B2, “Transgenic or non-transgenic plants with mutated protoporphyrinogen oxidase having increased tolerance to herbicides” (priority 2013, dated 2024)
Where a chain is given by its changes, count along the chain named.

Experiments:
Assay in all cases: biochemical
[1] = molecular target: T1, recombinant wildtype and mutated PPO (Amaranthus PPO2: PPX2L_WC SEQ ID NO 2, PPX2L_AC SEQ ID NO 4, dG210 SEQ ID NO 6 & 8) (Amaranthus tuberculatus, UniProt Q0NZW9, D133A/F420L/R128F); details: IC50 (M)
T1 sequence (Q0NZW9 1-534 R128F/D133A/F420L): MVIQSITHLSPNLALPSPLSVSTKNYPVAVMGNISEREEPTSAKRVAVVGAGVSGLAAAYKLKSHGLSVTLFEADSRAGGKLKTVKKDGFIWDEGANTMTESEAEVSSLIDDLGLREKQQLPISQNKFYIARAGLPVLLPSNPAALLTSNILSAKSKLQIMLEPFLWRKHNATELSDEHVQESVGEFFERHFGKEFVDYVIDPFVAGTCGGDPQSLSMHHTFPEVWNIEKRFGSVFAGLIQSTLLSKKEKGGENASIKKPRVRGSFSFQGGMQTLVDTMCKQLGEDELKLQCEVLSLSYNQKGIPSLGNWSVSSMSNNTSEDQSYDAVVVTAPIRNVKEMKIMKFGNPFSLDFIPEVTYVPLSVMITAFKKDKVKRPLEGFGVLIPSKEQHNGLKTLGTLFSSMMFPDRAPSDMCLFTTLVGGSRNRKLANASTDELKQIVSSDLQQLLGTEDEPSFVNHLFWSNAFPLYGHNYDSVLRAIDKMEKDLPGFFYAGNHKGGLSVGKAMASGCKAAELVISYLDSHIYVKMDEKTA

[2] = molecular target: T2, recombinant wildtype and mutated PPO (Amaranthus PPO2: PPX2L_WC SEQ ID NO 2, PPX2L_AC SEQ ID NO 4, dG210 SEQ ID NO 6 & 8) (Amaranthus tuberculatus, UniProt Q0NZW9, D133A/F420M/R128F); details: IC50 (M)
T2 sequence (Q0NZW9 1-534 R128F/D133A/F420M): T1 sequence (Q0NZW9 1-534 R128F/D133A/F420L) with L420M

[3] = molecular target: T3, recombinant wildtype and mutated PPO (Amaranthus PPO2: PPX2L_WC SEQ ID NO 2, PPX2L_AC SEQ ID NO 4, dG210 SEQ ID NO 6 & 8) (Amaranthus tuberculatus, UniProt Q0NZW9, D133A/F420M/R128I); details: IC50 (M)
T3 sequence (Q0NZW9 1-534 R128I/D133A/F420M): T1 sequence (Q0NZW9 1-534 R128F/D133A/F420L) with F128I, L420M

[4] = molecular target: recombinant wildtype and mutated PPO (Amaranthus PPO2: PPX2L_WC SEQ ID NO 2, PPX2L_AC SEQ ID NO 4, dG210 SEQ ID NO 6 & 8) (Amaranthus tuberculatus, UniProt Q0NZW9, D133A/F420M/R128S); details: IC50 (M)
[5] = molecular target: T4, recombinant wildtype and mutated PPO (Amaranthus PPO2: PPX2L_WC SEQ ID NO 2, PPX2L_AC SEQ ID NO 4, dG210 SEQ ID NO 6 & 8) (Amaranthus tuberculatus, UniProt Q0NZW9, R128A/F420M, form not given)
T4 sequence (Q0NZW9 1-534 R128A/F420M): T1 sequence (Q0NZW9 1-534 R128F/D133A/F420L) with F128A, A133D, L420M

Sequence of recombinant wildtype and mutated PPO (Amaranthus PPO2: PPX2L_WC SEQ ID NO 2, PPX2L_AC SEQ ID NO 4, dG210 SEQ ID NO 6 & 8) (Amaranthus tuberculatus, UniProt Q0NZW9, D133A/F420M/R128S) (Q0NZW9 1-534 R128S/D133A/F420M): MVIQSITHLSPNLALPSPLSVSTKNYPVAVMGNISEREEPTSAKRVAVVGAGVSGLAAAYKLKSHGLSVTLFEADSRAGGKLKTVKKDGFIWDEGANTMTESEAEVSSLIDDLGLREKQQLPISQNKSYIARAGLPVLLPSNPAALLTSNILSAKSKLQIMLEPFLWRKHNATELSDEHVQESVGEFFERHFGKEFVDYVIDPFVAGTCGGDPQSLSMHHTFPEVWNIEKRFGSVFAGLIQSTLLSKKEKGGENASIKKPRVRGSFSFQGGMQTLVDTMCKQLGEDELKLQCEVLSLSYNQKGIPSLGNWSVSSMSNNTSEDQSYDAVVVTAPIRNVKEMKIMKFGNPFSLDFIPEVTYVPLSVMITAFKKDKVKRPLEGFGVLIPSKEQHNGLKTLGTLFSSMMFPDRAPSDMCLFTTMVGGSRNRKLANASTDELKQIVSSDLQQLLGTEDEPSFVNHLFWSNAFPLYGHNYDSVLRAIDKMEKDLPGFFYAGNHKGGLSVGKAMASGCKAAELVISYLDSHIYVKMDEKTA

SMILES | IC50 [1] [M] | IC50 [2] [M] | IC50 [3] [M] | IC50 [4] [M] | IC50 [5] [nM]
C#CCN1C(=O)C(F)(F)Oc2cc(F)c(-n3c(=O)n(C)c(=S)n(C)c3=O)cc21 | 1.01e-06 | 1.21e-07 | 6.1e-08 | 2.4e-08 | –
C#CCN1C(=O)C(F)(F)Oc2cc(F)c(-n3c(=O)cc(C(F)(F)F)n(C)c3=O)cc21 | – | – | – | – | 2.56
C#CCN1C(=O)C(F)(F)Oc2cc(F)c(N3C(=O)C4=C(CCCC4)C3=O)cc21 | – | – | – | – | 641
COC(Oc1ccccc1Oc1cc(-n2c(=O)cc(C(F)(F)F)n(C)c2=O)c(F)cc1Cl)C(=O)OC1CCCCC1 (stereo not drawn) | 1.18e-06 | 6.26e-08 | 1.06e-08 | 5.24e-08 | –
COC(=O)C(OC)Oc1ccccc1Oc1cc(-n2c(=O)cc(C(F)(F)F)n(C)c2=O)c(F)cc1Cl (stereo not drawn) | 4.84e-08 | 2.81e-09 | 1.15e-08 | 3.62e-08 | –
C#CCN1C(=O)COc2cc(F)c(N3C(=O)C4=C(CCCC4)C3=O)cc21 [Flumioxazin, flumioxazin] | – | – | – | – | 8430
